Where two headings read alike, the source gives them in different places.
Experiments:
[1] = biological target: T1, E. coli MetRS (Escherichia coli, UniProt P00959); details: for kcat (min^−1) or RSA (^32P-ATP formed min^−1 enzyme μM^−1): 25° C., pH 7.0
Description: (§1) Adenylation of α- and β-Amino Acids Catalyzed by E. coli PheRS, GlyRS, MetRS, and GluRS. […] Briefly, assay mixtures (50 μL) assembled at 25° C. contained the requisite α- or β^3-amino acid substrate (between 5 μM and 5 mM) in 100 mM HEPES (pH 7.0) containing 100 mM KCl, 15 mM MgCl2, 2 mM ATP, 0.5 mM NaPPi, and 50 μCi [^32P]-NaPPi). Reactions were initiated upon addition of enzyme (10 nM MetRS, 10 nM PheRS, or 50 nM GlyRS; 100 nM GluRS for reactions with α-Glu or 1.13 μM GluRS for reactions with β^3-Glu), incubated for various times (10 sec to 10 min), and halted by adding a 5 μL reaction aliquot to 100 μL quenching solution (10% charcoal, 0.5% HCl). 50 μL of 200 mM NaPPi in 1.5 N HCl was then added to each quenched reaction to decrease nonspecific binding of pyrophosphate to the charcoal. Each quenched reaction was then filtered through Whatman filter paper (number 3), previously washed with washing solution (200 mM NaPPi in 1 N HCl) using a 96-well BIO-DOT® apparatus (BioRad). Each well of the apparatus was then washed four times with 200 μL aliquots of washing solution (by pipetting washing solution up and down at least 10 times per wash) to minimize nonspecific binding of pyrophosphate to charcoal. Each experimental well was paired with an analogous control well (no-enzyme control) that lacked enzyme; a single membrane contained time points for both α- and β^3-amino acid substrates and all no-enzyme controls. The membrane was allowed to dry and was protected with a sheet of Microseal B adhesive seals (Biorad) prior to exposure to a BAS Storage Phosphor screen. Screens were imaged on a Typhoon 9500FLA biomolecule imager and the signal intensity of each dot was quantified using ImageJ to determine the relative amount of [^32P]-ATP formed as a function of time (Ctime). Each raw value were corrected by subtracting the intensity of the dot corresponding to the appropriate no-enzyme control (Cblank) and the resulting corrected values of Ccorr (representing the relative amounts of ^32P-ATP formed) were plotted as a function of time to determine values of relative ^32P-ATP formed per minute. Those values were divided by the concentration of enzyme used, and the data was plotted as relative specific activity (^32P-ATP formed min^−1×μM^−1 enzyme) and fitted using Prism by performing nonlinear regression using the least squares method and Equation 1 to obtain RSA (relative specific activity) and KM values (Equation 1 and Table 2).
(§2) In Equation 1, v is the apparent relative specific activity (relative ^32P-ATP formed per minute) obtained at each substrate concentration divided by the enzyme concentration, RSA is the relative specific activity, S is the concentration of substrate, and KM is the Michaelis-Menten constant.

[2] = biological target: T1, E. coli MetRS; details: for krev (apparent rate of deacylation): deacylation of aminoacyl-tRNA, MetRS 500 nM, 25° C.
Description: (§3) Deacylation assays. Large scale (200 μL) aminoacylation reactions were initiated using the conditions described above (iv). The reactions were allowed to proceed for 1 h at 37° C., after which each reaction mixture was phenol/chloroform extracted. In each case, the aminoacylated tRNA product was ethanol precipitated, and the buffer was exchanged using a micro Bio-Spin 6 column (BioRad) following the procedure specified by the manufacturer and 100 mM HEPES (pH 8.0) containing 100 mM KCl. The precise extent of aminoacylation was calculated using the procedure described above; the 2 μM concentration corresponds to total aminoacylated tRNA. Assays were performed at 25° C. in a 50 μL reaction with 2 μM [^32P]-aminoacyl-tRNA in 100 mM HEPES (pH 7.0) containing 100 mM KCl and 15 mM MgCl2.

[3] = biological target: T1, E. coli MetRS
Description: Aminoacylation of α- and β^3-amino acids. All tRNAs were prepared for aminoacylation by heating ^32P-tRNA (in 100 mM HEPES (pH 7.0)) to 95° C. for 3 min, and adding sufficient aminoacylation buffer (100 mM HEPES (pH 7.0), 100 mM KCl, 15 mM MgCl2) to ensure [^32P-tRNA]=4 μM. This tRNA mixture was allowed to cool at RT for 30 min. […] Equal volumes of the tRNA and amino acid mix were combined, and enzyme was added to initiate the reaction. The final concentration of tRNA after mixing was 2 μM. Reactions were quenched at various time points by mixing 1 μL of the reaction mixture with 4 μL of P1 (Sigma) or S1 (Invitrogen) nuclease solution (0.5 U/μL final prepared from a 10 U/μL stock solution in 10 mM NaOAc (pH 5.0). PEI cellulose TLC plates were run as previously described (Ledoux, et al., Methods, 44:74 (2008)), exposed to a BAS Storage Phosphor Screen, and imaged using a Typhoon FLA9500 biomolecule imager. The intensity of each band was quantified using ImageJ. The sum of the intensities of the bands corresponding to [^32P]-AMP (IAMP) and aminoacyl-[^32P]-AMP (IAA) was set equal to 2 μM, and the concentration of aminoacylated-tRNA at each time point and each enzyme concentration (μM product formed, x) calculated from the equation x=[(IAA×2 μM)/(IAA+IAMP)]. The increase in aminoacyl-^32P-AMP over time was divided by the amount of enzyme used, plotted as a function of substrate concentration and fitted to a hyperbolic equation to obtain kcat and KM values, using Equation 1 and Prism as described for the adenylation reactions. For all aminoacylation reactions, kcat has units of reciprocal time (min^−1).

[4] = biological target: T2, E. coli PheRS (Escherichia coli, UniProt P08312); experiment: Adenylation of α- and β3-amino acids, pyrophosphate exchange assay
Description: as §1, §2

[5] = biological target: T2, E. coli PheRS; experiment: Aminoacylation of 32P-tRNA with α- and β3-amino acids; type: biochemical; design: made in house; host or cells: E. coli BL21(DE3)
[6] = biological target: T2, E. coli PheRS; experiment: Deacylation assay of [32P]-aminoacyl-tRNA; type: biochemical; design: made in house; host or cells: E. coli BL21(DE3); details: deacylation of aminoacyl-tRNA, PheRS 500 nM, 25° C.
Description: as §3

[7] = biological target: T3, E. coli TyrRS (Escherichia coli, UniProt P0AGJ9); experiment: Adenylation of α- and β-Tyr, coupled MESG/PNP pyrophosphate release assay; type: biochemical
T3 construct: made in house; host or cells: E. coli BL21(DE3)
T3 sequence (P0AGJ9 1-424): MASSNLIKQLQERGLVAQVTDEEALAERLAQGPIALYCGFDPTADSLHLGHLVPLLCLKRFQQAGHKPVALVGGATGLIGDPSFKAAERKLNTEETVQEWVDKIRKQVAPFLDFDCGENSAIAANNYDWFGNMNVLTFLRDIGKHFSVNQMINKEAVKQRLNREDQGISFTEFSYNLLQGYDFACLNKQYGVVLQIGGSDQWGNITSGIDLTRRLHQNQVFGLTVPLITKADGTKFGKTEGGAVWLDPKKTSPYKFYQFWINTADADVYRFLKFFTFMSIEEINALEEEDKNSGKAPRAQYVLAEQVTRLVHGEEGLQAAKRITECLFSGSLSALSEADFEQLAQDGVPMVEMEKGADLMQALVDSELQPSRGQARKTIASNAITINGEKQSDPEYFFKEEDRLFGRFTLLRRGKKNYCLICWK
Excerpt: ii. Adenylation of α- and β-Tyr catalyzed by E. coli TyrRS. These reactions were monitored spectrophotometrically in a coupled assay using inorganic pyrophosphatase, 2-amino-6-mercapto-7-methylpurine ribonucleoside (MESG), and purine nucleoside phosphorylase (PNP) to monitor the rate of pyrophosphate release, according to the manufacturer's instructions (Enzcheck Pyrophosphate assay kit, Thermo Fisher Scientific). The assay measures the increase in absorbance at 360 nm due to MESG phosphorolysis, and two molecules of MESG are consumed per pyrophosphate generated. This direct assay could be employed for TyrRS because the rate of ATP hydrolysis (in the absence of amino acid substrate) was insignificant, which was not the case for the other synthetases which therefore required the more laborious pyrophosphate exchange assay described above. […] For TyrRS, kcat is the turnover number (units of reciprocal time) since the change in absorbance can be directly correlated to concentration of pyrophosphate formed.

[8] = biological target: T3, E. coli TyrRS; experiment: Aminoacylation of 32P-tRNA with α- and β3-amino acids; type: biochemical
[9] = biological target: T3, E. coli TyrRS; experiment: Deacylation assay of [32P]-aminoacyl-tRNA; type: biochemical; details: deacylation of aminoacyl-tRNA, TyrRS 1 μM, 25° C.
Description: as §3

T2 sequence (P08312 whole entry): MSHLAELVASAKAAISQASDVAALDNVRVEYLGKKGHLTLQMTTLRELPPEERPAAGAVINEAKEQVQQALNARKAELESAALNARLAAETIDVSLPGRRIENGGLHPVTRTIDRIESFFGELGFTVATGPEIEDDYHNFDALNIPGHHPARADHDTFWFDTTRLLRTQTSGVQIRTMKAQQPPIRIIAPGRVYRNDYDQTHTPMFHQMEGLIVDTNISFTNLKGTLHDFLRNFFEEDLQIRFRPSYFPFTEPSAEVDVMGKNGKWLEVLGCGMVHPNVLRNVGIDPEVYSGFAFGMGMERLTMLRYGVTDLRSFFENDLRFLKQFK
T2 sequence (P07395 whole entry partner): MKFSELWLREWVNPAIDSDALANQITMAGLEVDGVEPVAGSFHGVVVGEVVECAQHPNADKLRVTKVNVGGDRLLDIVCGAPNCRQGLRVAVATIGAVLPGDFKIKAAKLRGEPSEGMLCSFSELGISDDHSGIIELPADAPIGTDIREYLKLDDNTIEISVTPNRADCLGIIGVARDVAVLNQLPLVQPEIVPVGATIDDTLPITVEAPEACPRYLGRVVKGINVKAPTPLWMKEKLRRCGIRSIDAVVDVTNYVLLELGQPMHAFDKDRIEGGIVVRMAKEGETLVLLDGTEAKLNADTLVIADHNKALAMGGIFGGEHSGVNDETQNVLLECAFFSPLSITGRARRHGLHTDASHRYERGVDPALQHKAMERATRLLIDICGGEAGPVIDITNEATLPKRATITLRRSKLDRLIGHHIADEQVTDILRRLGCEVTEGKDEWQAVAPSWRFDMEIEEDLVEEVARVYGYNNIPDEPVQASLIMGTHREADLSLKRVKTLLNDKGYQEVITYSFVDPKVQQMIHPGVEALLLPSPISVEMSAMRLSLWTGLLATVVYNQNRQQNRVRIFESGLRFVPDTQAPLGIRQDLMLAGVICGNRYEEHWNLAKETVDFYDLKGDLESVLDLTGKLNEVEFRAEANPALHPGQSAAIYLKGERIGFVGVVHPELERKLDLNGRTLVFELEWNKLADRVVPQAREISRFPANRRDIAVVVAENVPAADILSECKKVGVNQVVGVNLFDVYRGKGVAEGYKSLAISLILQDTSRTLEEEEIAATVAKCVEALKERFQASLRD
T1 sequence (P00959 whole entry): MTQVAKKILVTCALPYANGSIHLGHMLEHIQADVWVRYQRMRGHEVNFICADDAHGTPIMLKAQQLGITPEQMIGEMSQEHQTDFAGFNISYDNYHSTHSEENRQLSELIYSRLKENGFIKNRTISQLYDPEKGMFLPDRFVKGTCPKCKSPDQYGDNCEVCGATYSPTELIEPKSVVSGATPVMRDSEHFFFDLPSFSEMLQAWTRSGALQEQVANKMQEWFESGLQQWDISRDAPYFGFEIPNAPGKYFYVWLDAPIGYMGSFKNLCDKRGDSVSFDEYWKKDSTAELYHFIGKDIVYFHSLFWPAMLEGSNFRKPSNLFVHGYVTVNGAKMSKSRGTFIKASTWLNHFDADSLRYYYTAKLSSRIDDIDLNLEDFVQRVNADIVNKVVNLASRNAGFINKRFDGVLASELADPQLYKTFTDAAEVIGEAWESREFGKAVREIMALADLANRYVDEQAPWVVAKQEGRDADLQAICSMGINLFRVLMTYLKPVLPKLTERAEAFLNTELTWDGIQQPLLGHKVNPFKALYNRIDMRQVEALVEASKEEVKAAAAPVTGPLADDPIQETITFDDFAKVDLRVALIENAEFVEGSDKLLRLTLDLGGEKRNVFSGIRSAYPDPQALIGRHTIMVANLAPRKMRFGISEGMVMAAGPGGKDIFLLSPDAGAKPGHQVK

CSCCC(N)CC(=O)O (stereo not drawn) [β-Met, β^3-methionine]
Km ([1]; adenylation): 33.4 ± 22 µM | kcat (min^−1) or RSA (^32P-ATP formed min^−1 enzyme μM^−1) ([1]; adenylation): 310 ± 47 ^32P-ATP formed min^−1 enzyme μM^−1 | krev (apparent rate of deacylation) [2]: 4.0 ± 1.8 min⁻¹ | Km ([3]; aminoacylation): 609 ± 243 µM | kcat ([3]; aminoacylation, 2 μM tRNA): 0.0035 ± 0.0005 s⁻¹

NC(CC(=O)O)Cc1ccccc1 (stereo not drawn) [β-Phe, β^3-phenylalanine]
Km [4]: 300 ± 137 µM | kcat (min^−1) or RSA (^32P-ATP formed min^−1 enzyme μM^−1) ([4]; RSA, 25° C., pH 7.0): 41.6 ± 6.8 ^32P-ATP formed min^−1 enzyme μM^−1 | Km [5]: 119 ± 51.5 µM | kcat ([5]; 2 μM tRNA): 0.004 ± 0.0005 s⁻¹ | krev (apparent rate of deacylation) [6]: 0.32 ± 0.03 min⁻¹

NC(CC(=O)O)Cc1ccc(O)cc1 (stereo not drawn) [β-Tyr, β^3-tyrosine]
Km [7]: 450 µM | kcat (min^−1) or RSA (^32P-ATP formed min^−1 enzyme μM^−1) ([7]; kcat (turnover number)): 0.027 ± 0.001 min⁻¹ | Km [8]: 340 ± 80.3 µM | kcat ([8]; 2 μM tRNA): 0.0208 ± 0.012 s⁻¹ | krev (apparent rate of deacylation) [9]: 1.9 ± 0.6 min⁻¹

CSCC[C@H](N)C(=O)O [α-Met, Methionine]
Ratio (α-/β-) of KM ([1]; adenylation): 0.70 ± 0.5 | Ratio (α-/β-) of RSA ([1]; adenylation): 1.4 ± 0.2 | Ratio (α-/β-) of kcat/KM ([1]; adenylation): 1.98 ± 1.5 | preference for α-Met over β^3-Met ([1]; adenylation phase): 2 fold | kcat (min^−1) or RSA (^32P-ATP formed min^−1 enzyme μM^−1) ([1]; adenylation): 430 ± 38 ^32P-ATP formed min^−1 enzyme μM^−1 | krev (apparent rate of deacylation) [2]: 2.1 ± 1.7 min⁻¹ | Ratio (α/β) of krev ([2]; deacylation, MetRS): 0.52 ± 0.49 | Ratio (α/β) of KM ([3]; aminoacylation): 0.40 ± 0.18 | Ratio (α/β) of kcat ([3]; aminoacylation): 6.8 ± 1.3 | Ratio (α/β) of kcat/KM ([3]; aminoacylation): 17.0 ± 8.5 | preference (kcat/KM) for α-Met over β^3-Met ([3]; complete aminoacylation reaction): 19 fold

From patent US11203773B2, “Designer ribosomes and methods of use thereof for incorporating non-standard amino acids into polypeptides” (Yale University, priority 2016, dated 2021)
